# Results reported in patent US20240399142A1, “Methods Of Using Alternating Electric Fields And Checkpoint Inhibitors” (NOVOCURE GMBH, priority 2023, published 2024).
# Assay: LUNAR study safety: adverse events per CTCAE version 4.03, safety population
# Type: in vivo, human
# Conditions: for Anxiety / Confusional state / Mental status changes: psychiatric disorders; for Acute kidney injury / Urinary retention: renal and urinary disorders; for Acute respiratory failure / Atelectasis / Bronchial obstruction / Bronchopleural fistula / Chronic obstructive pulmonary disease / Cough / Dyspnoea / Esophago-bronchial fistula / Hemoptysis / Hypoxia / Interstitial lung disease / Pleural effusion / Pneumonia aspiration / Pneumonitis / Pulmonary embolism / Pulmonary hemorrhage / Respiratory failure: thoracic, and mediastinal disorders, respiratory; for Alopecia / Dermatitis exfoliative / Pruritus / Rash / Rash erythematous / Rash maculopapular / Skin erosion / Skin reaction / Skin toxicity: skin and subcutaneous tissue disorders; for Deep vein thrombosis / Embolism / Hypertension / Jugular vein thrombosis / Peripheral arterial occlusive disease / Vena cava embolism: vascular disorders
# [1] = Grade 4, nervous system disorders
# [2] = Grade 5, nervous system disorders
# Description: Safety and treatment data were compiled from all patients who received any study therapy and were analyzed according to the actual treatment received. Analyses were performed using SAS software, version 9.4 (SAS Institute).
compound,measurement,setting,value
"CC(=O)O[C@@]12CO[C@@H]1C[C@H](O)[C@@]1(C)C(=O)[C@H](O)C3=C(C)[C@@H](OC(=O)[C@H](O)[C@@H](NC(=O)OC(C)(C)C)c4ccccc4)C[C@@](O)([C@@H](OC(=O)c4ccccc4)[C@H]21)C3(C)C [Docetaxel, docetaxel]",Metastases to bone,Grade 4,0 no. (%)
same,Metastases to central nervous system,Grade 4,0 no. (%)
same,Metastases to meninges,Grade 4,0 no. (%)
same,Metastases to skin,Grade 4,0 no. (%)
same,Mouth ulceration,Grade 4,0 no. (%)
same,Mucosal inflammation,Grade 4,0 no. (%)
same,Multiple organ dysfunction syndrome,Grade 4,0 no. (%)
same,Muscular weakness,Grade 4,0 no. (%)
same,Myalgia,Grade 4,0 no. (%)
same,Myocardial infarction,Grade 4,0 no. (%)
same,Nausea,Grade 4,0 no. (%)
same,Neck pain,Grade 4,0 no. (%)
same,Neuropathy peripheral,Grade 4,0 no. (%)
same,Neutropenia,Grade 4,10 (14.7) no. (%)
same,Neutrophil count decreased,Grade 4,4 (5.9) no. (%)
same,Non-cardiac chest pain,Grade 4,0 no. (%)
same,Oedema peripheral,Grade 4,0 no. (%)
same,Oral candidiasis,Grade 4,0 no. (%)
same,Pancreatic failure,Grade 4,0 no. (%)
same,Pancreatitis,Grade 4,0 no. (%)
same,Pericardial effusion,Grade 4,0 no. (%)
same,Peripheral sensory,Grade 4,0 no. (%)
same,Platelet count decreased,Grade 4,0 no. (%)
same,Pneumonia,Grade 4,0 no. (%)
same,Pneumonia pseudomonal,Grade 4,0 no. (%)
same,Pneumonia staphylococcal,Grade 4,0 no. (%)
same,Pyelonephritis,Grade 4,0 no. (%)
same,Pyopneumothorax,Grade 4,0 no. (%)
same,Pyrexia,Grade 4,0 no. (%)
same,Refeeding syndrome,Grade 4,0 no. (%)
same,Respiratory tract infection,Grade 4,0 no. (%)
same,Right ventricular failure,Grade 4,0 no. (%)
same,Sepsis,Grade 4,1 (1.5) no. (%)
same,Septic shock,Grade 4,0 no. (%)
same,Skin infection,Grade 4,0 no. (%)
same,Stomatitis,Grade 4,0 no. (%)
same,Subileus,Grade 4,0 no. (%)
same,Thrombocytopenia,Grade 4,1 (1.5) no. (%)
same,Thyroiditis subacute,Grade 4,0 no. (%)
same,Tumor pain,Grade 4,0 no. (%)
same,Upper respiratory tract infection,Grade 4,0 no. (%)
same,Urinary tract infection,Grade 4,0 no. (%)
same,Urosepsis,Grade 4,0 no. (%)
same,Vomiting,Grade 4,0 no. (%)
same,Weight decreased,Grade 4,0 no. (%)
same,White blood cell count decreased,Grade 4,2 (2.9) no. (%)
same,Brain oedema,[1],1 (1.5) no. (%)
same,Cauda equina syndrome,[1],0 no. (%)
same,Dysarthria,[1],0 no. (%)
same,Embolic stroke,[1],0 no. (%)
same,Hemiparesis,[1],0 no. (%)
same,Motor dysfunction,[1],0 no. (%)
same,Nervous system disorder,[1],0 no. (%)
same,Neurologic neglect syndrome,[1],0 no. (%)
same,Neurotoxicity,[1],0 no. (%)
same,Peripheral sensorimotor neuropathy,[1],0 no. (%)
same,Quadriparesis,[1],0 no. (%)
same,Seizure,[1],0 no. (%)
same,Syncope,[1],0 no. (%)
same,Vocal cord paralysis,[1],0 no. (%)
same,Anxiety,Grade 4,0 no. (%)
same,Confusional state,Grade 4,0 no. (%)
same,Mental status changes,Grade 4,1 (1.5) no. (%)
same,Acute kidney injury,Grade 4,0 no. (%)
same,Urinary retention,Grade 4,0 no. (%)
same,Acute respiratory failure,Grade 4,0 no. (%)
same,Atelectasis,Grade 4,0 no. (%)
same,Bronchial obstruction,Grade 4,2 (2.9) no. (%)
same,Bronchopleural fistula,Grade 4,0 no. (%)
same,Chronic obstructive pulmonary disease,Grade 4,0 no. (%)
same,Cough,Grade 4,0 no. (%)
same,Dyspnoea,Grade 4,1 (1.5) no. (%)
same,Esophago-bronchial fistula,Grade 4,0 no. (%)
same,Hemoptysis,Grade 4,0 no. (%)
same,Hypoxia,Grade 4,0 no. (%)
same,Interstitial lung disease,Grade 4,0 no. (%)
same,Pleural effusion,Grade 4,0 no. (%)
same,Pneumonia aspiration,Grade 4,0 no. (%)
same,Pneumonitis,Grade 4,0 no. (%)
same,Pulmonary embolism,Grade 4,0 no. (%)
same,Pulmonary hemorrhage,Grade 4,0 no. (%)
same,Respiratory failure,Grade 4,0 no. (%)
same,Alopecia,Grade 4,0 no. (%)
same,Dermatitis exfoliative,Grade 4,0 no. (%)
same,Pruritus,Grade 4,0 no. (%)
same,Rash,Grade 4,0 no. (%)
same,Rash erythematous,Grade 4,0 no. (%)
same,Rash maculopapular,Grade 4,0 no. (%)
same,Skin erosion,Grade 4,0 no. (%)
same,Skin reaction,Grade 4,0 no. (%)
same,Skin toxicity,Grade 4,0 no. (%)
same,Deep vein thrombosis,Grade 4,0 no. (%)
same,Embolism,Grade 4,0 no. (%)
same,Hypertension,Grade 4,0 no. (%)
same,Jugular vein thrombosis,Grade 4,1 (1.5) no. (%)
same,Peripheral arterial occlusive disease,Grade 4,0 no. (%)
same,Vena cava embolism,Grade 4,0 no. (%)
same,Acute myocardial infarction,Grade 5,0 no. (%)
same,Alanine aminotransferase increased,Grade 5,0 no. (%)
same,Anemia,Grade 5,0 no. (%)
same,Anemia macrocytic,Grade 5,0 no. (%)
same,Any adverse event,Grade 5,4 (5.9) no. (%)
same,Arthralgia,Grade 5,0 no. (%)
same,Ascites,Grade 5,0 no. (%)
same,Aspergillus infection,Grade 5,0 no. (%)
same,Asthenia,Grade 5,0 no. (%)
same,Atrial tachycardia,Grade 5,0 no. (%)
same,Autoimmune colitis,Grade 5,0 no. (%)
same,Back pain,Grade 5,0 no. (%)
same,Blood bilirubin increased,Grade 5,0 no. (%)
same,Bone pain,Grade 5,0 no. (%)
same,Bronchiolitis,Grade 5,0 no. (%)
same,Bronchitis,Grade 5,0 no. (%)
same,C-reactive protein increased,Grade 5,0 no. (%)
same,COVID-19 pneumonia,Grade 5,0 no. (%)
same,Cancer pain,Grade 5,0 no. (%)
same,Cardiac failure congestive,Grade 5,0 no. (%)
same,Cardiac tamponade,Grade 5,0 no. (%)
same,Cardiac ventricular thrombosis,Grade 5,0 no. (%)
same,Cataract,Grade 5,0 no. (%)
same,Chest pain,Grade 5,0 no. (%)
same,Cholangitis,Grade 5,0 no. (%)
same,Cholecystitis,Grade 5,0 no. (%)
same,Cholelithiasis,Grade 5,0 no. (%)
same,Clostridium bacteremia,Grade 5,0 no. (%)
same,Coronary artery disease,Grade 5,0 no. (%)
same,Decreased appetite,Grade 5,0 no. (%)
same,Dehydration,Grade 5,0 no. (%)
same,Diarrhea,Grade 5,0 no. (%)
same,Diverticulitis,Grade 5,0 no. (%)
same,Drug hypersensitivity,Grade 5,0 no. (%)
same,Encephalitis,Grade 5,0 no. (%)
same,Esophagitis,Grade 5,0 no. (%)
same,Euthanasia,Grade 5,1 (1.5) no. (%)
same,Fatigue,Grade 5,0 no. (%)
same,Febrile neutropenia,Grade 5,0 no. (%)
same,Femoral neck fracture,Grade 5,0 no. (%)
same,Forced expiratory volume decreased,Grade 5,0 no. (%)
same,Gastroenteritis norovirus,Grade 5,0 no. (%)
same,Gastroenteritis salmonella,Grade 5,0 no. (%)
same,General physical health deterioration,Grade 5,0 no. (%)
same,Hematochezia,Grade 5,0 no. (%)
same,Hepatic enzyme increased,Grade 5,0 no. (%)
same,Hip fracture,Grade 5,0 no. (%)
same,Hypercalcemia,Grade 5,0 no. (%)
same,Hyperglycemia,Grade 5,0 no. (%)
same,Hyperkalaemia,Grade 5,0 no. (%)
same,Hypertriglyceridaemia,Grade 5,0 no. (%)
same,Hypoalbuminemia,Grade 5,0 no. (%)
same,Hypocalcaemia,Grade 5,0 no. (%)
same,Hypokalemia,Grade 5,0 no. (%)
same,Hyponatremia,Grade 5,0 no. (%)
same,Ileus,Grade 5,0 no. (%)
same,Infection,Grade 5,0 no. (%)
same,Intestinal dilatation,Grade 5,0 no. (%)
same,Intestinal hemorrhage,Grade 5,0 no. (%)
same,Intestinal perforation,Grade 5,0 no. (%)
same,Large intestine perforation,Grade 5,0 no. (%)
same,Leukopenia,Grade 5,0 no. (%)
same,Liver disorder,Grade 5,0 no. (%)
same,Localized oedema,Grade 5,0 no. (%)
same,Lung abscess,Grade 5,0 no. (%)
same,Lymphocyte count decreased,Grade 5,0 no. (%)
same,Lymphopenia,Grade 5,0 no. (%)
same,Malignant ascites,Grade 5,0 no. (%)
same,Malignant pleural effusion,Grade 5,0 no. (%)
same,Malnutrition,Grade 5,0 no. (%)
same,Metastases to bone,Grade 5,0 no. (%)
same,Metastases to central nervous system,Grade 5,0 no. (%)
same,Metastases to meninges,Grade 5,0 no. (%)
same,Mouth ulceration,Grade 5,0 no. (%)
same,Mucosal inflammation,Grade 5,0 no. (%)
same,Multiple organ dysfunction syndrome,Grade 5,0 no. (%)
same,Muscular weakness,Grade 5,0 no. (%)
same,Myalgia,Grade 5,0 no. (%)
same,Myocardial infarction,Grade 5,0 no. (%)
same,Nausea,Grade 5,0 no. (%)
same,Neck pain,Grade 5,0 no. (%)
same,Neutropenia,Grade 5,0 no. (%)
same,Neutrophil count decreased,Grade 5,0 no. (%)
same,Non-cardiac chest pain,Grade 5,0 no. (%)
same,Oedema peripheral,Grade 5,0 no. (%)
same,Oral candidiasis,Grade 5,0 no. (%)
same,Pancreatic failure,Grade 5,0 no. (%)
same,Pancreatitis,Grade 5,0 no. (%)
same,Pericardial effusion,Grade 5,0 no. (%)
same,Peripheral sensory,Grade 5,0 no. (%)
same,Platelet count decreased,Grade 5,0 no. (%)
same,Pneumonia,Grade 5,0 no. (%)
same,Pneumonia pseudomonal,Grade 5,0 no. (%)
same,Pneumonia staphylococcal,Grade 5,0 no. (%)
same,Pyelonephritis,Grade 5,0 no. (%)
same,Pyopneumothorax,Grade 5,0 no. (%)
same,Pyrexia,Grade 5,0 no. (%)
same,Refeeding syndrome,Grade 5,0 no. (%)
same,Respiratory tract infection,Grade 5,0 no. (%)
same,Right ventricular failure,Grade 5,0 no. (%)
same,Sepsis,Grade 5,0 no. (%)
same,Septic shock,Grade 5,0 no. (%)
same,Skin infection,Grade 5,0 no. (%)
same,Stomatitis,Grade 5,0 no. (%)
same,Subileus,Grade 5,0 no. (%)
same,Thrombocytopenia,Grade 5,0 no. (%)
same,Thyroiditis subacute,Grade 5,0 no. (%)
same,Tumor pain,Grade 5,0 no. (%)
same,Upper respiratory tract infection,Grade 5,0 no. (%)
same,Urinary tract infection,Grade 5,0 no. (%)
same,Urosepsis,Grade 5,0 no. (%)
same,Vomiting,Grade 5,0 no. (%)
same,Weight decreased,Grade 5,0 no. (%)
same,White blood cell count decreased,Grade 5,0 no. (%)
same,Brain oedema,[2],0 no. (%)
same,Cauda equina syndrome,[2],0 no. (%)
same,Dysarthria,[2],0 no. (%)
same,Hemiparesis,[2],0 no. (%)
same,Motor dysfunction,[2],0 no. (%)
same,Nervous system disorder,[2],0 no. (%)
same,Neurologic neglect syndrome,[2],0 no. (%)
same,Peripheral sensorimotor neuropathy,[2],0 no. (%)
same,Quadriparesis,[2],0 no. (%)
same,Seizure,[2],0 no. (%)
same,Syncope,[2],0 no. (%)
same,Vocal cord paralysis,[2],0 no. (%)
same,Anxiety,Grade 5,0 no. (%)
same,Confusional state,Grade 5,0 no. (%)
same,Mental status changes,Grade 5,0 no. (%)
same,Acute kidney injury,Grade 5,0 no. (%)
same,Urinary retention,Grade 5,0 no. (%)
same,Acute respiratory failure,Grade 5,2 (2.9) no. (%)
same,Atelectasis,Grade 5,0 no. (%)
same,Bronchial obstruction,Grade 5,0 no. (%)
same,Bronchopleural fistula,Grade 5,0 no. (%)
same,Chronic obstructive pulmonary disease,Grade 5,0 no. (%)
same,Cough,Grade 5,0 no. (%)
same,Dyspnoea,Grade 5,0 no. (%)
same,Esophago-bronchial fistula,Grade 5,0 no. (%)
same,Hemoptysis,Grade 5,0 no. (%)
same,Hypoxia,Grade 5,0 no. (%)
same,Interstitial lung disease,Grade 5,0 no. (%)
same,Pleural effusion,Grade 5,0 no. (%)
same,Pneumonia aspiration,Grade 5,0 no. (%)
same,Pneumonitis,Grade 5,0 no. (%)
same,Pulmonary embolism,Grade 5,0 no. (%)
same,Pulmonary hemorrhage,Grade 5,0 no. (%)
same,Respiratory failure,Grade 5,1 (1.5) no. (%)
same,Alopecia,Grade 5,0 no. (%)
same,Dermatitis exfoliative,Grade 5,0 no. (%)
same,Pruritus,Grade 5,0 no. (%)
same,Rash,Grade 5,0 no. (%)
same,Rash erythematous,Grade 5,0 no. (%)
same,Rash maculopapular,Grade 5,0 no. (%)
same,Skin erosion,Grade 5,0 no. (%)
same,Skin reaction,Grade 5,0 no. (%)
same,Skin toxicity,Grade 5,0 no. (%)
same,Deep vein thrombosis,Grade 5,0 no. (%)
same,Embolism,Grade 5,0 no. (%)
same,Hypertension,Grade 5,0 no. (%)
same,Jugular vein thrombosis,Grade 5,0 no. (%)
same,Peripheral arterial occlusive disease,Grade 5,0 no. (%)
same,Vena cava embolism,Grade 5,0 no. (%)
same,Anemia,Grade ≥3,8 (11.8) no. (%)
same,Any adverse event,Grade ≥3,43 (63.2) no. (%)
same,Neutropenia,Grade ≥3,11 (16.2) no. (%)
same,COVID-19 pneumonia,"human, in vivo",0 no. (%)
same,Herpes zoster,"human, in vivo",0 no. (%)
same,Adverse event leading to death,"human, in vivo, 75 mg/m2",4 (5.9) no. (%)
same,Adverse event leading to discontinuation,in vivo,1 (1.5) no. (%)
same,Serious adverse event,in vivo,28 (41.2) no. (%)
same,patients who discontinued therapy due to intolerable toxicity,in vivo,four
